“And” between values parts separate entries of the source, which are not always exact repeats. Equal values may be shown once. Inconclusive results and toxic doses are left out.
Tested on: B6C3F1 mice, Lewis lung carcinoma iv, survival T/C
Assay: NCI In Vivo Anticancer Drug Screen. Data for tumor model Lewis Lung Carcinoma (intravenous) in B6C3F1 mice
Settings: endpoint: median survival time, schedule: Q01DX009 (ip), higher = longer survival
Method: The antitumor activity of compounds was measured in mice bearing transplantable tumors. Survival or tumor size were measured and the results are expressed as the measurement made in the treated group (T) divided by the measurement made in the vehicle treated control group (C). The tumor model used in this assay is Lewis Lung Carcinoma (intravenous) in B6C3F1 mice

[1] = dose: 12.5 mg/kg/injection, vehicle: Klucel (hydroxypropylcellulose) (HPC)
[2] = dose: 25.0 mg/kg/injection, vehicle: Klucel (hydroxypropylcellulose) (HPC)
[3] = dose: 50.0 mg/kg/injection, vehicle: Klucel (hydroxypropylcellulose) (HPC)
[4] = dose: 100.0 mg/kg/injection, vehicle: Klucel (hydroxypropylcellulose) (HPC)
[5] = dose: 200.0 mg/kg/injection, vehicle: Klucel (hydroxypropylcellulose) (HPC)
[6] = dose: 12.5 mg/kg/injection, vehicle: saline
[7] = dose: 25.0 mg/kg/injection, vehicle: saline
[8] = dose: 50.0 mg/kg/injection, vehicle: saline
[9] = dose: 100.0 mg/kg/injection, vehicle: saline
[10] = dose: 200.0 mg/kg/injection, vehicle: saline
[11] = dose: 400.0 mg/kg/injection, vehicle: saline
[12] = dose: 400.0 mg/kg/injection, vehicle: Klucel (hydroxypropylcellulose) (HPC)
[13] = dose: 800.0 mg/kg/injection, vehicle: saline
[14] = dose: 16.0 mg/kg/injection, vehicle: saline with Tween-80
[15] = dose: 6.25 mg/kg/injection, vehicle: saline with Tween-80
[16] = dose: 12.5 mg/kg/injection, vehicle: saline with Tween-80
[17] = dose: 25.0 mg/kg/injection, vehicle: saline with Tween-80
[18] = dose: 50.0 mg/kg/injection, vehicle: saline with Tween-80
[19] = dose: 100.0 mg/kg/injection, vehicle: saline with Tween-80
[20] = dose: 1.56 mg/kg/injection, vehicle: saline with Tween-80
[21] = dose: 3.12 mg/kg/injection, vehicle: saline with Tween-80

SMILES: Oc1c(Cl)cc(Cl)cc1C1N2CCCCC2C2c3cccn3-c3ccccc3N21 (stereo unspecified)
- T/C [1]: 106 % of control
- T/C [2]: 101 % of control
- T/C [3]: 104 % of control
- T/C [4]: 95 % of control
- T/C [5]: 102 % of control

SMILES: O=[N+]([O-])c1nccn1CC(O)CO (stereo unspecified)
- T/C [6]: 100 % of control
- T/C [7]: 105 % of control
- T/C [8]: 104 % of control
- T/C [9]: 102 % of control
- T/C [10]: 106 % of control
- T/C [11]: 107 % of control

SMILES: CC1CCC(n2cnc3c(Cl)ncnc32)O1 (stereo unspecified)
- T/C [1]: 91 % of control
- T/C [2]: 107 % of control
- T/C [3]: 107 % of control
- T/C [4]: 108 % of control
- T/C [5]: 113 % of control
- T/C [12]: 108 % of control

SMILES: N#C[C@H](OC1OC(COC2OC(CO)C(O)C(O)C2O)C(O)C(O)C1O)c1ccccc1 (stereo partly specified)
- T/C [7]: 111 % of control
- T/C [8]: 95 % of control
- T/C [9]: 95 % of control
- T/C [10]: 92 % of control
- T/C [11]: 97 % of control
- T/C [13]: 101 % of control

SMILES: COC(=O)C(N)Cc1ccc(O)c(O)c1 (stereo unspecified)
- T/C [6]: 107 % of control
- T/C [7]: 103 % of control
- T/C [8]: 101 % of control
- T/C [9]: 109 % of control
- T/C [10]: 92 % of control
- T/C [11]: 95 % of control
- T/C [13]: 95 % of control

SMILES: CNC(=O)Oc1ccc[nH]c1=O
- T/C [14]: 101 % of control
- T/C (dose: 32.0 mg/kg/injection, vehicle: saline with Tween-80): 103 % of control
- T/C (dose: 64.0 mg/kg/injection, vehicle: saline with Tween-80): 104 % of control
- T/C (dose: 128.0 mg/kg/injection, vehicle: saline with Tween-80): 90 % of control
- T/C (dose: 256.0 mg/kg/injection, vehicle: saline with Tween-80): 94 % of control

SMILES: CN1N=C(N)c2cn(C3OC(COP(=O)(O)O)C(O)C3O)c3ncnc1c23 (stereo unspecified)
- T/C (dose: 6.25 mg/kg/injection, vehicle: water): 98 % of control

SMILES: C/C=C1\C[C@@H]2C(OC)Nc3cc(O)c(OC)cc3C(=O)N2C1 (stereo partly specified)
- T/C (dose: 0.03 mg/kg/injection, vehicle: saline): 100 % of control
- T/C (dose: 0.03 mg/kg/injection, vehicle: suspension in saline): 92 % of control
- T/C (dose: 0.06 mg/kg/injection, vehicle: saline): 110 % of control
- T/C (dose: 0.06 mg/kg/injection, vehicle: suspension in saline): 96 % of control
- T/C (dose: 0.12 mg/kg/injection, vehicle: saline): 101 % of control
- T/C (dose: 0.12 mg/kg/injection, vehicle: suspension in saline): 97 % of control
- T/C (dose: 0.25 mg/kg/injection, vehicle: saline): 108 % of control
- T/C (dose: 0.25 mg/kg/injection, vehicle: suspension in saline): 104 % of control
- T/C (dose: 0.5 mg/kg/injection, vehicle: saline): 104 % of control
- T/C (dose: 0.5 mg/kg/injection, vehicle: suspension in saline): 105 % of control

SMILES: COc1cccc2c1C(=O)c1c(O)c3c(c(O)c1C2=O)CC(O)(/C(C)=N/NC(=O)CCC(=O)N/N=C(\C)C1(O)Cc2c(O)c4c(c(O)c2C(OC2CC(N)C(O)C(C)O2)C1)C(=O)c1c(OC)cccc1C4=O)CC3OC1CC(N)C(O)C(C)O1 (stereo unspecified)
- T/C (dose: 0.75 mg/kg/injection, vehicle: water): 99 % of control and 100 % of control
- T/C (dose: 1.5 mg/kg/injection, vehicle: water): 103 % of control and 105 % of control
- T/C (dose: 3.0 mg/kg/injection, vehicle: water): 101 % of control
- T/C (dose: 6.0 mg/kg/injection, vehicle: water): 105 % of control and 260 % of control
- T/C (dose: 12.0 mg/kg/injection, vehicle: water): 101 % of control and 113 % of control
- T/C (dose: 24.0 mg/kg/injection, vehicle: water): 104 % of control

SMILES: CCCCc1ccc2nc(NC(=O)OC)[nH]c2c1
- T/C [15]: 111 % of control
- T/C [16]: 97 % of control
- T/C [17]: 95 % of control
- T/C [18]: 95 % of control
- T/C [19]: 111 % of control

SMILES: COC1=C(C)C(=O)C2=C(C1=O)C1C3CC4=C(C(=O)C(OC)=C(C)C4=O)C(CNC(=O)C(C)=O)N3C(C#N)C(C2)N1C (stereo unspecified)
- T/C (dose: 0.12 mg/kg/injection, vehicle: Klucel (hydroxypropylcellulose) (HPC)): 101 % of control
- T/C (dose: 0.25 mg/kg/injection, vehicle: Klucel (hydroxypropylcellulose) (HPC)): 108 % of control
- T/C (dose: 0.5 mg/kg/injection, vehicle: Klucel (hydroxypropylcellulose) (HPC)): 107 % of control
- T/C (dose: 1.0 mg/kg/injection, vehicle: Klucel (hydroxypropylcellulose) (HPC)): 113 % of control

SMILES: N=C1CCCS1
- T/C [7]: 117 % of control
- T/C [8]: 122 % of control

SMILES: NC(CSC(c1ccccc1)(c1ccccc1)c1ccccc1)C(=O)O (stereo unspecified)
- T/C (dose: 3.12 mg/kg/injection, vehicle: Klucel (hydroxypropylcellulose) (HPC)): 116 % of control
- T/C (dose: 6.25 mg/kg/injection, vehicle: Klucel (hydroxypropylcellulose) (HPC)): 96 % of control
- T/C [1]: 111 % of control
- T/C [2]: 102 % of control
- T/C [3]: 107 % of control

SMILES: O/N=C/c1ccccc1O.O/N=C/c1ccccc1O.[Cu]
- T/C [20]: 113 % of control
- T/C [21]: 100 % of control
- T/C [15]: 104 % of control
- T/C [16]: 96 % of control
- T/C [17]: 104 % of control
- T/C [18]: 96 % of control

SMILES: CCCN1COC(OCC)C(C)(C)C1 (stereo unspecified)
- T/C [16]: 103 % of control and 111 % of control
- T/C [17]: 93 % of control and 99 % of control
- T/C [18]: 106 % of control and 112 % of control
- T/C [19]: 100 % of control and 101 % of control

SMILES: NC(Cc1ccc(N(CCCl)CCCl)cc1)C(=O)O (stereo unspecified)
- T/C (dose: 1.0 mg/kg/injection, vehicle: saline with Tween-80): 98 % of control
- T/C (dose: 2.0 mg/kg/injection, vehicle: saline with Tween-80): 100 % of control
- T/C (dose: 4.0 mg/kg/injection, vehicle: saline with Tween-80): 104 % of control
- T/C [14]: 101 % of control

SMILES: Nc1nc(N)c2c(ccc3c2ccn3Cc2cccc([N+](=O)[O-])c2)n1
- T/C [20]: 98 % of control
- T/C [21]: 102 % of control
- T/C [15]: 103 % of control

SMILES: CCC(C)Nc1ccc(N)cc1 (stereo unspecified)
- T/C (dose: 1.5 mg/kg/injection, vehicle: Klucel (hydroxypropylcellulose) (HPC)): 86 % of control
- T/C (dose: 3.0 mg/kg/injection, vehicle: Klucel (hydroxypropylcellulose) (HPC)): 98 % of control
- T/C (dose: 6.0 mg/kg/injection, vehicle: Klucel (hydroxypropylcellulose) (HPC)): 94 % of control
- T/C (dose: 12.0 mg/kg/injection, vehicle: Klucel (hydroxypropylcellulose) (HPC)): 93 % of control

SMILES: COC1/C=C/C=C(/C)Cc2cc(O)c(Cl)c(c2)N(C)C(=O)CC(OC(=O)C(C)C)C2(C)OC2C(C)C2CC1(O)NC(=O)O2 (stereo unspecified)
- T/C (dose: 0.06 mg/kg/injection, vehicle: saline + alcohol): 101 % of control
- T/C (dose: 0.12 mg/kg/injection, vehicle: saline + alcohol): 96 % of control
- T/C (dose: 0.25 mg/kg/injection, vehicle: saline + alcohol): 100 % of control
- T/C (dose: 0.5 mg/kg/injection, vehicle: saline + alcohol): 100 % of control

SMILES: O=C(O)C1(NO)CCCCC1
- T/C [1]: 95 % of control and 106 % of control
- T/C [2]: 101 % of control and 106 % of control
- T/C [3]: 100 % of control and 101 % of control
- T/C [4]: 102 % of control and 105 % of control
- T/C [5]: 95 % of control and 108 % of control
- T/C [12]: 97 % of control and 109 % of control

SMILES: O=NN(CCF)C(=O)NCCO
- T/C (dose: 5.0 mg/kg/injection, vehicle: saline): 238 % of control
- T/C (dose: 10.0 mg/kg/injection, vehicle: saline): 215 % of control

From PubChem BioAssay AID276 (DTP/NCI, 2004)
